From patent publication US11925690B2, “Bifunctional molecules for targeting Rpn11” (AMPHISTA THERAPEUTICS LTD, priority 2018, dated 2024)

Tests used:
Brd4 (L) [1] = target: T1, Brd4 (L) (Homo sapiens, UniProt O60885); experiment: Time-dependent BET degradation, immunoblot; format: cell-based; set-up: Dmax: dose or concentration left out as unconfirmed; conditions: HEK293, Brd4 (L)
T1 construct: endogenous in cells; host or cells: HEK293 (CRL-1573), HeLa (CCL-2)
Description: (§1) Immunoblotting. Proteins were separated by SDS-PAGE on NuPage 4-12% Bis-Tris gels, followed by transfer to Amersham Protran 0.45 NC nitrocellulose membrane (GE Healthcare) using wet transfer. Membranes were blocked using 5% w/v milk in Tris-buffered saline (TBS) with 0.1% Tween-20. Blots were probed (overnight at 4 °C) using anti-Brd2 (Abcam ab139690, 1:2,000 dilution), anti-Brd3 (Abcam ab50818, 1:500 dilution), and anti-Brd4 (Abcam ab128874, 1:1,000 dilution) primary antibodies, as appropriate. The next day, blots were washed with TBST and incubated (1 h at Room temperature) with anti-Tubulin hFAB-rhodamine (BioRad, 12004166) primary antibody, and either anti-rabbit IRDye 800CW (Licor 1:1,000 dilution) or anti-mouse IRDye 800CW (Licor 1:1,000 dilution) secondary antibody. Blots were developed using a Bio-Rad ChemiDoc MP Imaging System, and band quantification was performed using Image Studio software (LiCor). Band intensities were normalized to the tubulin loading control and reported as % of the average 0.1% DMSO vehicle intensity. Degradation data was plotted and analysed using Prism (Graphpad, version 8).
(§2) HEK293 (0.5×10^6) cells were seeded in standard 6-well plates (2 mL medium) overnight before treatment with compounds at 1 μM concentration, with a final DMSO concentration of 0.1% v/v. After incubation for the desired time (0-24 hrs), cells were washed with DPBS (Gibco) and lysed using 85 μL RIPA buffer (Sigma-Aldrich) supplemented with complete Mini EDTA-free protease inhibitor cocktail (Roche) and benzonase. Lysates were clarified by centrifugation (20000 g, 10 min, 4° C.) and the total protein content of the supernatant was quantified using a Bradford colorimetric assay. Samples were prepared using equal amounts of total protein and LDS sample buffer (Invitrogen). Band intensities were normalized to the tubulin loading control and reported as % of the average 0.1% DMSO vehicle intensity. Degradation data was plotted and analysed using Prism (Graphpad, version 8).
(§3) MZ1 and 11JQ17 were used at 1 μM (4 h) for positive and negative controls, respectively. […]

Brd4 (S) [2] = target: T2, Brd4 (S) (Homo sapiens, UniProt O60885); experiment: Time-dependent BET degradation, immunoblot; format: cell-based; set-up: Dmax: dose or concentration left out as unconfirmed; conditions: HEK293, Brd4 (S)
T2 construct: endogenous in cells; host or cells: HEK293 (CRL-1573), HeLa (CCL-2)
Description: as §1, §2, §3

Brd2 [3] = target: T3, Brd2 (Homo sapiens, UniProt P25440); experiment: Time-dependent BET degradation, immunoblot; format: cell-based; conditions: HEK293, Brd2, 1 μM
T3 sequence (P25440 whole entry): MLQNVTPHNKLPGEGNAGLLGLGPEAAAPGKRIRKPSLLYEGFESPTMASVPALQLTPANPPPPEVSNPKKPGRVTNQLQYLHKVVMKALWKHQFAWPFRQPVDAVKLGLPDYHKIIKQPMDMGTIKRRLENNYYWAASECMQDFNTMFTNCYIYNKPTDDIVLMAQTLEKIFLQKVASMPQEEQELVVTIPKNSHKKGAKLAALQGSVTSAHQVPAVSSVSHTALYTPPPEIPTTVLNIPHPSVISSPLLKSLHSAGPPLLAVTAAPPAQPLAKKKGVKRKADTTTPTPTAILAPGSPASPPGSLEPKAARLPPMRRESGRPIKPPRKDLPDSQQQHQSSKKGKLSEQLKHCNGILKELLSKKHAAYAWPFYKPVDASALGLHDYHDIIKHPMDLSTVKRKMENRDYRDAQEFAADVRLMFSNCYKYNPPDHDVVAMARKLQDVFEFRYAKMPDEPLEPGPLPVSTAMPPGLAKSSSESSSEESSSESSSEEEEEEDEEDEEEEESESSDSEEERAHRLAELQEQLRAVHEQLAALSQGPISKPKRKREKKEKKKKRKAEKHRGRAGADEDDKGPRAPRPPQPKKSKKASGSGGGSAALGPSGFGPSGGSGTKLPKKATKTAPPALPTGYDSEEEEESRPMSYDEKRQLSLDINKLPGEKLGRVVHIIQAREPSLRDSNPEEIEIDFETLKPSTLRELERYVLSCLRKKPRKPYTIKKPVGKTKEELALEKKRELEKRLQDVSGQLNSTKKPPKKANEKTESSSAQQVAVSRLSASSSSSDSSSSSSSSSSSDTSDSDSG
Description: as §1, §2, §3

Brd3 [4] = target: T4, Brd3 (Homo sapiens, UniProt Q15059); experiment: Time-dependent BET degradation, immunoblot; format: cell-based; conditions: HEK293, Brd3, 1 μM
T4 sequence (Q15059 whole entry): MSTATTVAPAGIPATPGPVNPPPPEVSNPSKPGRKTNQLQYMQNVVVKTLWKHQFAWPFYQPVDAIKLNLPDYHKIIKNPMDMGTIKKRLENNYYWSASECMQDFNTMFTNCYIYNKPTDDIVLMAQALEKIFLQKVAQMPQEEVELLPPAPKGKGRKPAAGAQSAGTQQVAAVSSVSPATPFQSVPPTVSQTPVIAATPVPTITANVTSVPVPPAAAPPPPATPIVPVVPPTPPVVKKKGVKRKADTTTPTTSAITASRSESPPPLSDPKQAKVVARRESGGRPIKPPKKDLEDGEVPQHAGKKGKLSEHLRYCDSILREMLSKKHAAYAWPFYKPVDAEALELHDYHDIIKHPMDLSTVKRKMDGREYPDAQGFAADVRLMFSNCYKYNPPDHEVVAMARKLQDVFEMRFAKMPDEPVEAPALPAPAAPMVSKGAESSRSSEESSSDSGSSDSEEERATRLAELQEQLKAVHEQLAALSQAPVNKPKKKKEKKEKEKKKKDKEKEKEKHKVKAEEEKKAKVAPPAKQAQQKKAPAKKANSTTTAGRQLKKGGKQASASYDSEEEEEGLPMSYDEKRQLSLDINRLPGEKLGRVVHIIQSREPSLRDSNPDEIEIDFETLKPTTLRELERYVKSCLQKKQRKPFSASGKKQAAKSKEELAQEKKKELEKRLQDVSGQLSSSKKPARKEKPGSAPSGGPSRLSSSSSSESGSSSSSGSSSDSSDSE
Description: as §1, §2, §3

Brd4 (L) [5] = target: T1, Brd4 (L); experiment: Concentration-dependent BET degradation, immunoblot; format: cell-based; conditions: 4 h, 1 nM-10 μM
Description: as §1
as §2, with “HeLa (5×10^5) and HEK293” for “HEK293”, “(1×10^6)” for “(0.5×10^6)”, “the desired concentration (1 nM-10 μM),” for “1 μM concentration,”, “4 h treatment time,” for “incubation for the desired time (0-24 hrs),”, “cOmplete” for “complete”
(§4) MZ1 and 11JQ17 were used at 1 μM for positive and negative controls, respectively. […] For the table, Dmax: +(Dmax≤25%); ++(26%≤Dmax≤50%); +++(51%≤Dmax≤70%); ++++(71%≤DC50: A (DC50≤50 nM); B (51 nM≤DC50≤500 nM); C (501 nM≤DC50).

Brd4 (S) [6] = target: T2, Brd4 (S); experiment: as above; format: cell-based; conditions: 4 h, 1 nM-10 μM
Description: as §1
as §2, with “HeLa (5×10^5) and HEK293” for “HEK293”, “(1×10^6)” for “(0.5×10^6)”, “the desired concentration (1 nM-10 μM),” for “1 μM concentration,”, “4 h treatment time,” for “incubation for the desired time (0-24 hrs),”, “cOmplete” for “complete”
as §4

Brd2 [7] = target: T3, Brd2; experiment: as above; format: cell-based; set-up: endogenous in cells; host or cells: HEK293 (CRL-1573), HeLa (CCL-2); conditions: 1 nM-10 μM
Description: as §1
as §2, with “HeLa (5×10^5) and HEK293” for “HEK293”, “(1×10^6)” for “(0.5×10^6)”, “the desired concentration (1 nM-10 μM),” for “1 μM concentration,”, “4 h treatment time,” for “incubation for the desired time (0-24 hrs),”, “cOmplete” for “complete”
as §4

Brd3 [8] = target: T4, Brd3; experiment: as above; format: cell-based; set-up: endogenous in cells; host or cells: HEK293 (CRL-1573), HeLa (CCL-2); conditions: 1 nM-10 μM
Description: as §1
as §2, with “HeLa (5×10^5) and HEK293” for “HEK293”, “(1×10^6)” for “(0.5×10^6)”, “the desired concentration (1 nM-10 μM),” for “1 μM concentration,”, “4 h treatment time,” for “incubation for the desired time (0-24 hrs),”, “cOmplete” for “complete”
as §4

Brd4 [9] = target: T5, Brd4 (Homo sapiens, UniProt O60885); experiment: Immunoblot analysis of Brd4 in HEK293 cells (prodrug activity, negative SAR); format: cell-based; conditions: HEK293, 1 μM, 4 h, n=3
T5 construct: immunoblot analysis of Brd4 following 4 h treatment of HEK293 cells; endogenous in cells; host or cells: HEK293 (CRL-1573)
Description: as §1, with “8). […]” for “8).”
HEK293 (1×10^6) cells incubated with DMSO, 1 μM 11JQ15 or 1 μM 11JQ17 for 4 h with a final DMSO concentration of 0.1% v/v. […] Degradation data was plotted and analysed using Prism (Graphpad, version 8), where bars are mean±SEM of three independent experiments.

HEK293 cells = experiment: Unbiased whole proteome analysis by TMT-labelling MS; format: cell-based; conditions: HEK293, 1 μM, 4 h, n=3
Description: HEK293 (2.2×10 6) cells were seeded in 10 cm plates (10 mL medium) overnight before treatment with 1 μM compound for a final DMSO concentration of 0.1% v/v. After 4 h incubation time, cells were washed with 2× with DPBS (Gibco) and lysed using 500 μL lysis buffer (100 mM Tris, 4% (w/v) SDS, pH 8.0) supplemented with cOmplete Mini EDTA-free protease inhibitor cocktail (Roche) and benzonase. Lysates were briefly sonicated (2×10 s), clarified by centrifugation (20000 g, 10 min, 4° C.) and the total protein content of the supernatant was quantified using a BCA assay (Thermo Fisher Scientific).
Sample processing, digestion, desalting, labelling, and fractionation were performed at Fingerprint Proteomics (University of Dundee) as described previously [Gadd et al. 10.1038/nchembio.2329]. FIG. 7 depicts fold change of abundance of 7882 proteins comparing 11JQ15 to DMSO treatment (left) and comparing 1 μM 11JQ17 to DMSO treatment (right), as well as their respective p-values (t-test; n=3).

Brd4 [10] = target: T5, Brd4; experiment: Mechanistic evaluation: Brd4 degradation after inhibitor pre-treatment; format: cell-based; conditions: HEK293, 1 μM degrader 4 h
Description: HeLa (5×10^5) and HEK293 (1×10^6) cells were seeded in standard 6-well plates (2 mL medium) overnight before pre-treatment with inhibitors (10 μM bortezomib, 10 μM capzimin, 10 μM JQ1). After a 0.5 h pre-incubation time, cells were subsequently treated with vehicle, 1 μM MZ1 or 1 μM 11JQ15, yielding a final overall DMSO concentration of 0.2% v/v. After 4 h incubation, cells were washed with DPBS (Gibco) and lysed using 85 μL RIPA buffer (Sigma-Aldrich) supplemented with cOmplete Mini EDTA-free protease inhibitor cocktail (Roche) and benzonase. Lysates were clarified by centrifugation (20000 g, 10 min, 4° C.) and the total protein content of the supernatant was quantified using a Bradford colorimetric assay. Samples were prepared using equal amounts of total protein and LDS sample buffer (Invitrogen).
Brd4 band intensities were normalized to tubulin loading control and reported in FIG. 6B as % of the average 0.1% DMSO vehicle intensity. Each bar is mean±SEM of three independent experiments performed in duplicate (n=3).

human cancer cell lines = conditions: cited from earlier work
[11] = 1 μM, time to deplete 50% of the protein relative to DMSO
[12] = 1 μM, time to reach 50% of the Dmax
[13] = time to deplete 50% of the protein relative to DMSO

Row | DC50 (Brd4 (L) [5]; HEK293, Brd4 (L)) [nM] | Dmax (Brd4 (L) [5]; HEK293, Brd4 (L)) [%] | DC50 (Brd4 (L) [5]; HeLa) [nM] | Dmax (Brd4 (L) [5]; HeLa) [%] | DC50 (Brd4 (S) [6]; HEK293, Brd4 (S)) [nM] | Dmax (Brd4 (S) [6]; HEK293, Brd4 (S)) [%] | DC50 (Brd4 (S) [6]; HeLa) [nM] | Dmax (Brd4 (S) [6]; HeLa) [%] | DC50 (Brd2 [7]; HEK293, Brd2, 4 h) [nM] | Dmax (Brd2 [7]; HEK293, Brd2, 4 h) [%] | DC50 (Brd2 [7]; HeLa, Brd2, 4 h) [nM] | Dmax (Brd2 [7]; HeLa, Brd2, 4 h) [%] | DC50 (Brd3 [8]; HEK293, Brd3, 4 h) [nM] | Dmax (Brd3 [8]; HEK293, Brd3, 4 h) [%] | DC50 (Brd3 [8]; HeLa, Brd3, 4 h) [nM] | Dmax (Brd3 [8]; HeLa, Brd3, 4 h) [%] | SMILES | also measured
1 | 51 to 500 | ≥ 71 | 51 to 500 | ≥ 71 | 51 to 500 | ≥ 71 | 51 to 500 | ≥ 71 | 51 to 500 | ≥ 71 | 51 to 500 | 26 to 50 | ≥ 501 | 51 to 70 | ≥ 501 | 51 to 70 | Cc1sc2c(c1C)C(c1ccc(Cl)cc1)=N[C@@H](CC(=O)NCCOCCNC(=O)c1cc(S)c3ncc(C(=O)NCCc4nccs4)cc3c1)c1nnc(C)n1-2 [Example 11JQ1] | Dmax (Brd4 (L) [1]; 0-24 hrs): 95%; Abs. T1/2 (Brd4 (L) [1]; [11]): 1.7 h; T1/2 (Brd4 (L) [1]; [12]): 1.6 h; Dmax (Brd4 (S) [2]; 0-24 hrs): 95%; Abs. T1/2 (Brd4 (S) [2]; [11]): 1.9 h; T1/2 (Brd4 (S) [2]; [12]): 2 h; Dmax at 1 µM (Brd2 [3]; 0-24 hrs): 60%; Abs. T1/2 (Brd2 [3]; [13]): 3.5 h; T1/2 (Brd2 [3]; time to reach 50% of the Dmax): 1.0 h; Dmax at 1 µM (Brd3 [4]; 0-24 hrs): 90%; Abs. T1/2 (Brd3 [4]; [13]): 3.5 h; T1/2 (Brd3 [4]; time to reach 50% of the Dmax): 2.7 h
2 | 51 to 500 | ≥ 71 | ≥ 501 | ≥ 71 | 51 to 500 | ≥ 71 | ≥ 501 | ≥ 71 | ≥ 501 | 26 to 50 | ≥ 501 | 26 to 50 | ≥ 501 | 26 to 50 | ≥ 501 | ≤ 25 | Cc1sc2c(c1C)C(c1ccc(Cl)cc1)=N[C@@H](CC(=O)NCCCCNC(=O)c1cc(S)c3ncc(C(=O)NCc4ccc(F)cc4)cc3c1)c1nnc(C)n1-2 [Example 11JQ12] | –
3 | – | ≤ 25 | – | ≤ 25 | – | ≤ 25 | – | ≤ 25 | – | ≤ 25 | – | ≤ 25 | – | ≤ 25 | – | ≤ 25 | Cc1sc2c(c1C)C(c1ccc(Cl)cc1)=N[C@@H](CC(=O)NCCOCCNC(=O)c1cc(SC(C)(C)C)c3ncc(C(=O)NCCc4nccs4)cc3c1)c1nnc(C)n1-2 [Example 11JQ17] | Brd4 levels (FIG. 3) (Brd4 [9]): minimal depletion; fold change of abundance of 7882 proteins vs DMSO (FIG. 7) (HEK293 cells): does not show any BET depletion
4 | – | – | – | – | – | – | – | – | – | – | – | – | – | – | – | – | Cc1ncsc1-c1ccc(CNC(=O)[C@@H]2C[C@@H](O)CN2C(=O)[C@@H](NC(=O)COCCOCCOCCNC(=O)C[C@@H]2N=C(c3ccc(Cl)cc3)c3c(sc(C)c3C)-n3c(C)nnc32)C(C)(C)C)cc1 [MZ1, reference compound] | Brd4 degradation in the presence of JQ1 (Brd4 [10]; 10 μM JQ1 pre-treatment 0.5 h): blocked; Brd4 degradation in the presence of bortezomib (Brd4 [10]; 10 μM bortezomib pre-treatment 0.5 h): blocked; Brd4 degradation in the presence of capzimin (Brd4 [10]; 10 μM capzimin pre-treatment 0.5 h): only blocked by bortezomib and JQ1
5 | – | – | – | – | – | – | – | – | – | – | – | – | – | – | – | – | Cn1c(COP(=O)(NCCBr)NCCBr)cnc1[N+](=O)[O-] [TH-302, (1-methyl-2-nitro-1H-imidazole5-yl) N, N0-bis (2-bromoethyl) diamidophosphate] | cytotoxic potency (human cancer cell lines; hypoxic conditions): greatly enhanced cytotoxic potency; cytotoxic activity (human cancer cell lines; normoxic conditions): little cytotoxic activity
